Key:
[1] = compound: NC(=O)CCCCC1CCSS1 [lipoamide]; assay: thermal stability z-score vs DMSO; higher = more thermally stabilized by treatment; details: HeLa, lipoamide concentration 100 µM
Procedure: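 Cellular thermal proteome profiling in HeLa cells. Cells were treated with 100 µM lipoamide for 1 h, with or without 1 mM arsenate for a further 1 h, then heated to ten temperatures (37-66.3 °C), and soluble protein was quantified by TMT mass spectrometry relative to 0.1% DMSO controls. The thermal stability score (sum of log2 fold changes minus the abundance score) was transformed to a z-score; mean of n = 3 experiments.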

[2] = compound: O=[As]([O-])(O)O.[K+] [potassium arsenate]; assay: as above; details: HeLa; arsenate concentration 1 mM
Procedure: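 Cellular thermal proteome profiling in HeLa cells treated with 1 mM arsenate for 1 h (DMSO pretreatment), heated to ten temperatures (37-66.3 °C). Soluble protein was quantified by TMT mass spectrometry relative to DMSO controls; the thermal stability score was transformed to a z-score; mean of n = 3 experiments.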

[3] = arsenate co-treatment: 1 mM arsenate 1 h
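Also: each temperature applied for 3 min, abundance score taken as mean log2 fold change at the two lowest temperatures, z-score obtained by mean subtraction and division by SD.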

Chain of UniProt Q8NFF5 (Q8NFF5 whole entry): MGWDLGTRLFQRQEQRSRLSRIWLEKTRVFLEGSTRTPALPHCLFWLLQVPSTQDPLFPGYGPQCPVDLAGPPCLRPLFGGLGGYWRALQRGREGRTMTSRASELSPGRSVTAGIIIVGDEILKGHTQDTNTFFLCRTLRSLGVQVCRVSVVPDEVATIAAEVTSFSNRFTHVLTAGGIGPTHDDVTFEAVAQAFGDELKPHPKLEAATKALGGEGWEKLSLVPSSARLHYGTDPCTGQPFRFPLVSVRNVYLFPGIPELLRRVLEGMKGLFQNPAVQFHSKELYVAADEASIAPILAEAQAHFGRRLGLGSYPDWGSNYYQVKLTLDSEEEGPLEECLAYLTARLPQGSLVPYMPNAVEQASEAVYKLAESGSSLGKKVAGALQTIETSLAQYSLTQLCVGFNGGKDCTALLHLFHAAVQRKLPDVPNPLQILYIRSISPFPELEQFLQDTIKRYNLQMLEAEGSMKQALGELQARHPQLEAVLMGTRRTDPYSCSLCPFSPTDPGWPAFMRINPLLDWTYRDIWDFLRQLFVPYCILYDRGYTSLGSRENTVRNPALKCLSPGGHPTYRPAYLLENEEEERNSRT
Chain of UniProt P17096 (P17096 whole entry): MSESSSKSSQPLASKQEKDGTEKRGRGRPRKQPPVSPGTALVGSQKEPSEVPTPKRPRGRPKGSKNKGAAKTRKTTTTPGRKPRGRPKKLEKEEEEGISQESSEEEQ
Chain of UniProt Q6IBW4 (Q6IBW4 whole entry): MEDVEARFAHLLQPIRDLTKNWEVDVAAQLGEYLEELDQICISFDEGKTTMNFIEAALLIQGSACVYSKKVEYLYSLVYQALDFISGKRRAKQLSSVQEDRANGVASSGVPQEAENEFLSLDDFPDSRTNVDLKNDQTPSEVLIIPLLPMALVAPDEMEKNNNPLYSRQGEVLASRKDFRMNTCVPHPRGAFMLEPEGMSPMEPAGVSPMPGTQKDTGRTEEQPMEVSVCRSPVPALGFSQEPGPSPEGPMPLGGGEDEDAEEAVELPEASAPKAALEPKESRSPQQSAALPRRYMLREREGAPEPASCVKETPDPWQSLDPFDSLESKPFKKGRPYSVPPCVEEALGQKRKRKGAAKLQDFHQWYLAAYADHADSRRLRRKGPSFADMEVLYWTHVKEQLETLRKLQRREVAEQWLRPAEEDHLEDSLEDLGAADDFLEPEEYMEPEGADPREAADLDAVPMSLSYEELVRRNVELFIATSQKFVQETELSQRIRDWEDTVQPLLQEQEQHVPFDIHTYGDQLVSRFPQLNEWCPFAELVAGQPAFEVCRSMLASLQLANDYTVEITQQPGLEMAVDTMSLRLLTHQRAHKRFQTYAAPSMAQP
Chain of UniProt Q9NRW3 (Q9NRW3 whole entry): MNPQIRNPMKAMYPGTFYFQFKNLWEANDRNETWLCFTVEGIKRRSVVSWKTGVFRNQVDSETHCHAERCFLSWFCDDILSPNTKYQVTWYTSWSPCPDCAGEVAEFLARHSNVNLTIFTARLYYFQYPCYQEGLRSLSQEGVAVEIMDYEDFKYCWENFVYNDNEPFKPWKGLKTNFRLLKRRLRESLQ
Chain of UniProt Q9BVK6 (Q9BVK6 whole entry): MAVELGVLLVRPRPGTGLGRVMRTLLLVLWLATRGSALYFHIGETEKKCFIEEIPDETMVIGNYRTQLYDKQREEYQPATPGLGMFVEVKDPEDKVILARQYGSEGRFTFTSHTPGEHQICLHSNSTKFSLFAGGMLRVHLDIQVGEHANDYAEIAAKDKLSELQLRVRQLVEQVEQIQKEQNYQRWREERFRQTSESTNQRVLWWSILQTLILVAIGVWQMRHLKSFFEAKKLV
Chain of UniProt Q96BY9 (Q96BY9 whole entry): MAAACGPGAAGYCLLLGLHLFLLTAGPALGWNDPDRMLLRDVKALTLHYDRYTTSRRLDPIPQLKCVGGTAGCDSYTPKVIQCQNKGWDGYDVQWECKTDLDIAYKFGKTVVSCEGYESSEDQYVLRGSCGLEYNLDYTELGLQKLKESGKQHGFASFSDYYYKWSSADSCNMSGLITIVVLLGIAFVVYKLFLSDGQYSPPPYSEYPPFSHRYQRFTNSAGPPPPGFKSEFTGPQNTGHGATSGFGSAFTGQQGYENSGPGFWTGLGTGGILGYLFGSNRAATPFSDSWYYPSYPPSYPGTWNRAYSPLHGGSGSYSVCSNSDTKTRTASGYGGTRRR
Chain of UniProt Q9NRY5 (Q9NRY5 whole entry): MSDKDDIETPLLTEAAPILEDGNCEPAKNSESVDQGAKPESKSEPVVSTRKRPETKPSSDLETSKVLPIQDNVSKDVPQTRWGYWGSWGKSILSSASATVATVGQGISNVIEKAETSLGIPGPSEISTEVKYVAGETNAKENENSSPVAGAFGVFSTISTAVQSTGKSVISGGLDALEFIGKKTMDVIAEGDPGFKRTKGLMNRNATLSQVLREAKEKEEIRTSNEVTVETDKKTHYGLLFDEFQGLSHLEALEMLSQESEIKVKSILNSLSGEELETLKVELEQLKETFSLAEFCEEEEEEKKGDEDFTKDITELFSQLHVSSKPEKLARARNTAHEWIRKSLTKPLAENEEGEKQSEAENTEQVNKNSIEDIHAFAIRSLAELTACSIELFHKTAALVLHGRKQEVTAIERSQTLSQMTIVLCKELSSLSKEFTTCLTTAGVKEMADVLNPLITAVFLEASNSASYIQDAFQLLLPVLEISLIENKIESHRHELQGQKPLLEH
Chain of UniProt P25205 (P25205 whole entry): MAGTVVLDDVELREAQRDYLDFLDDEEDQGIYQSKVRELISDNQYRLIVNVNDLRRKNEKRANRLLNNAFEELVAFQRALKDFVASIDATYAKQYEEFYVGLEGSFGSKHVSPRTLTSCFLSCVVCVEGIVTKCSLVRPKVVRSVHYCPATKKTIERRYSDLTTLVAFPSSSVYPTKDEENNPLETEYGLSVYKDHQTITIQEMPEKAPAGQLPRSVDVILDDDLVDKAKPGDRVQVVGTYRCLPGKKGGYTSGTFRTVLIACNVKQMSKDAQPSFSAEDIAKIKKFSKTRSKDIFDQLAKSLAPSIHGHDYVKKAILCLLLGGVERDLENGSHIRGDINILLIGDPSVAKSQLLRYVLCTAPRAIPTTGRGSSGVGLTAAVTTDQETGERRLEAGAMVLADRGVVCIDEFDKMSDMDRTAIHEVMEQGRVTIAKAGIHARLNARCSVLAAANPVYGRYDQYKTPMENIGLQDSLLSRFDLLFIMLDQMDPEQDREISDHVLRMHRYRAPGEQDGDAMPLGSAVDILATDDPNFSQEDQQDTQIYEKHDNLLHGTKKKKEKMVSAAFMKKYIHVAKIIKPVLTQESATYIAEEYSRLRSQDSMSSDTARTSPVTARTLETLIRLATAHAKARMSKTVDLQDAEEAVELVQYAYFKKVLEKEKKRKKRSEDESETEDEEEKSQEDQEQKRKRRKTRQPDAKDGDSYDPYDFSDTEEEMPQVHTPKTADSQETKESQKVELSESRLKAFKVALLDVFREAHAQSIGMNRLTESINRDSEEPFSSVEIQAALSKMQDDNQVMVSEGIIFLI
Chain of UniProt O95816 (O95816 whole entry): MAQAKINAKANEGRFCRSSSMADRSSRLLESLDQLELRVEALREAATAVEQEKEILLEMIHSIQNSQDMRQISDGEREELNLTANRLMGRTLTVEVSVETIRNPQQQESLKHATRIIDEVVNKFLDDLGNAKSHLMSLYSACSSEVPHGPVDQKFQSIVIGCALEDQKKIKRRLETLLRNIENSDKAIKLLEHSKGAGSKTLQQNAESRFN
Chain of UniProt P16930 (P16930 whole entry): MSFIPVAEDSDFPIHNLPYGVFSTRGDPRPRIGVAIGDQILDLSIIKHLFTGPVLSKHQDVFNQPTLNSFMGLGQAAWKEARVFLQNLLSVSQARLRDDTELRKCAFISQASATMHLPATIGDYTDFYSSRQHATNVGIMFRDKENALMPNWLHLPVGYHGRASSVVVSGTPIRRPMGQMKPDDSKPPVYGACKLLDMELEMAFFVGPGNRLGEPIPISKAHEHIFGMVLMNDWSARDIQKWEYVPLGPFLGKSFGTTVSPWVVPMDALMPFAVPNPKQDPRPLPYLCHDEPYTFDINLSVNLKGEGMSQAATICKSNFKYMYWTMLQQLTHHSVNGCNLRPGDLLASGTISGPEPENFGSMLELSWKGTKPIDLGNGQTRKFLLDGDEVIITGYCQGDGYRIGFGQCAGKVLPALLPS
Chain of UniProt P11586 (P11586 whole entry): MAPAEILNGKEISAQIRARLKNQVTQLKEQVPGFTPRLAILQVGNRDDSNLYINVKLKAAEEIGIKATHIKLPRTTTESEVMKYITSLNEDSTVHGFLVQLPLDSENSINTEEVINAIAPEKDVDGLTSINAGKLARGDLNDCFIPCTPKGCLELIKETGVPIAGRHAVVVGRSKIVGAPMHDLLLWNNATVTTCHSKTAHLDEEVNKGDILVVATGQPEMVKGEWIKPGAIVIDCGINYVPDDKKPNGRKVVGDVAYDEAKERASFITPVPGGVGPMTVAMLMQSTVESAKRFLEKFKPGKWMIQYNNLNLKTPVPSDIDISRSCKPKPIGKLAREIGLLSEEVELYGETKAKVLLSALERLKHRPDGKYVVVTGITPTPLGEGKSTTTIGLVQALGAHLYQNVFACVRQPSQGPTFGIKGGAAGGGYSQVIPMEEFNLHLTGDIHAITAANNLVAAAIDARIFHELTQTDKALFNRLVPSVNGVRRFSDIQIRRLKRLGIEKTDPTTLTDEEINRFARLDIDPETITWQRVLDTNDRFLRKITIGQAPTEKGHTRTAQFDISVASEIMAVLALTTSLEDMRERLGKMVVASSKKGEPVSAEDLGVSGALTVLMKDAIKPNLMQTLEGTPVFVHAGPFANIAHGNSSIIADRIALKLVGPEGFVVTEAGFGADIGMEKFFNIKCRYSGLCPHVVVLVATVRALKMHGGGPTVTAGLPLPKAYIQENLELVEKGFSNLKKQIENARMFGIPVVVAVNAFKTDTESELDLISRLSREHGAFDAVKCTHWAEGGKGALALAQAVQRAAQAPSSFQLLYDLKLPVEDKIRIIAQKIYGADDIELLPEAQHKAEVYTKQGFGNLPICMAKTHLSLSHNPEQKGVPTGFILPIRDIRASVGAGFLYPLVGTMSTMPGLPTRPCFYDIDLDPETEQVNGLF

Target	thermal stability z-score [1, 3]	thermal stability z-score ([1]; arsenate co-treatment: none)	thermal stability z-score [2]
DNAJB14 (UniProt Q8TBM8)	0.0418	0.157	-0.17
PHF5A (UniProt Q7RTV0)	0.703	0.339	-5.28
UBE3C (UniProt Q15386)	-0.19	0.18	0.79
SLC7A5 (UniProt Q01650)	1.39	1.19	1.47
GTF2A2 (UniProt P52657)	-0.322	-0.782	-0.823
DDX27 (UniProt Q96GQ7)	0.47	0.52	-0.231
SLC25A4 (UniProt P12235)	-0.0513	0.0728	0.373
NCAPH2 (UniProt Q6IBW4)	-0.0183	0.00929	-0.299
ANAPC1 (UniProt Q9H1A4)	0.11	0.139	0.0453
FAH (UniProt P16930)	0.241	-0.125	-0.623
TMED9 (UniProt Q9BVK6)	-1.24	-1.5	0.151
NDUFAF3 (UniProt Q9BU61)	-0.122	-0.105	-0.147
POLE (UniProt Q07864)	-0.0751	-0.113	-0.553
VPS26A (UniProt O75436)	0.178	-0.395	0.335
AP2B1 (UniProt P63010)	-0.153	-0.596	-0.216
CLIC3 (UniProt O95833)	0.00456	0.0631	-0.0618
MCM3 (UniProt P25205)	-0.878	0.412	2.44
OASL (UniProt Q15646)	-0.147	-0.0704	-0.307
INTS3 (UniProt Q68E01)	-0.121	-0.0169	0.26
MTHFD1 (UniProt P11586)	0.565	0.406	-0.927
FLAD1 (UniProt Q8NFF5)	0.0301	0.05	-1.16
UniProt F5H5P2|BCKDHA	-0.168	-0.738	0.969
OSBPL3 (UniProt Q9H4L5)	-1.67	-0.909	-0.969
ACTG1 (UniProt P63261)	-0.494	-0.484	-0.572
KLC1 (UniProt Q07866)	-0.0381	-0.129	-0.0989
CTSB (UniProt P07858)	-0.289	-0.315	-0.676
UBTF (UniProt P17480)	0.142	0.184	0.532
BAG2 (UniProt O95816)	0.187	0.292	-0.106

Target	thermal stability z-score [1, 3]	thermal stability z-score ([1]; arsenate co-treatment: none)	thermal stability z-score [2]
HMGA1 (UniProt P17096)	-0.361	0.993	-0.692
PLXNB2 (UniProt O15031)	0.453	0.113	-0.338
NOC2L (UniProt Q9Y3T9)	0.154	0.208	0.0133
DNAJC16 (UniProt Q9Y2G8)	-0.913	-2.01	0.00733
KIAA1522 (UniProt Q9P206)	-0.388	-0.0277	0.286
STK11IP (UniProt Q8N1F8)	-0.747	-0.512	0.324
APOBEC3C (UniProt Q9NRW3)	-0.418	-0.453	-0.53
ATP2B1 (UniProt P20020)	0.446	0.697	-0.146
CSDE1 (UniProt O75534)	-0.138	0.281	-0.273
SCAMP4 (UniProt Q969E2)	0.196	0.377	0.0173
SARAF (UniProt Q96BY9)	-0.355	-0.0205	0.00539
PCBD1 (UniProt P61457)	0.499	0.492	0.213
KLHL13 (UniProt Q9P2N7)	-0.764	-0.242	0.825
TPPP (UniProt O94811)	-0.836	0.123	-0.479
LGALSL (UniProt Q3ZCW2)	0.209	0.257	0.19
EZR (UniProt P15311)	1.01	0.661	-0.481
FAM114A2 (UniProt Q9NRY5)	-0.354	-0.328	0.222
SRP72 (UniProt O76094)	-0.316	-0.00987	0.424
FARSA (UniProt Q9Y285)	-1.41	-0.546	0.0543
SBDS (UniProt Q9Y3A5)	0.328	0.706	0.306
STRBP (UniProt Q96SI9)	0.867	0.71	0.571
CDIPT (UniProt O14735)	1.05	0.638	-0.187
CCDC102A (UniProt Q96A19)	-0.156	-0.283	-0.327
GCN1 (UniProt Q92616)	-0.244	0.292	0.522
SLC31A1 (UniProt O15431)	0.126	0.215	0.321
NRBP1 (UniProt Q9UHY1)	-0.349	-0.151	0.23
WTAP (UniProt Q15007)	0.0767	0.0181	-0.059

From the supplement of paper PMC12463676, “Small-molecule dissolution of stress granules by redox modulation benefits ALS models” (Nature Chemical Biology, 2025)
